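Cells were grown in 96-well plates and exposed to each compound for 48 hours at five concentrations; endpoints were interpolated linearly between bracketing concentrations, or set to the highest concentration if not reached. TGI is the concentration that stops growth completely.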
How the values were obtained:
Assay in all cases: growth of human tumour cells (NCI), 48 h
786-0 renal = test system: 786-0 renal
A498 renal = test system: A498 renal
A549 NSCLC = test system: A549 NSCLC
ACHN renal = test system: ACHN renal
CAKI-1 renal = test system: CAKI-1 renal
CCRF-CEM leukemia = test system: CCRF-CEM leukemia
COLO 205 colon = test system: COLO 205 colon
DLD-1 colon = test system: DLD-1 colon
DMS 114 small cell lung = test system: DMS 114 small cell lung
DMS 273 small cell lung = test system: DMS 273 small cell lung
EKVX NSCLC = test system: EKVX NSCLC
HCC-2998 colon = test system: HCC-2998 colon
HCT-116 colon = test system: HCT-116 colon
HCT-15 colon = test system: HCT-15 colon
HL-60(TB) leukemia = test system: HL-60(TB) leukemia
HOP-18 NSCLC = test system: HOP-18 NSCLC
HOP-62 NSCLC = test system: HOP-62 NSCLC
HOP-92 NSCLC = test system: HOP-92 NSCLC
HT29 colon = test system: HT29 colon
IGROV1 ovarian = test system: IGROV1 ovarian
K-562 leukemia = test system: K-562 leukemia
KM12 colon = test system: KM12 colon
KM20L2 colon = test system: KM20L2 colon
LOX IMVI melanoma = test system: LOX IMVI melanoma
LXFL 529 NSCLC = test system: LXFL 529 NSCLC
M14 melanoma = test system: M14 melanoma
M19-MEL melanoma = test system: M19-MEL melanoma
MALME-3M melanoma = test system: MALME-3M melanoma
MOLT-4 leukemia = test system: MOLT-4 leukemia
NCI-H226 lung = test system: NCI-H226 lung
NCI-H23 lung = test system: NCI-H23 lung
NCI-H460 lung = test system: NCI-H460 lung
NCI-H522 lung = test system: NCI-H522 lung
OVCAR-3 ovarian = test system: OVCAR-3 ovarian
OVCAR-4 ovarian = test system: OVCAR-4 ovarian
OVCAR-5 ovarian = test system: OVCAR-5 ovarian
OVCAR-8 ovarian = test system: OVCAR-8 ovarian
RPMI-8226 leukemia = test system: RPMI-8226 leukemia
RXF 393 renal = test system: RXF 393 renal
SF-268 CNS = test system: SF-268 CNS
SF-295 CNS = test system: SF-295 CNS
SF-539 CNS = test system: SF-539 CNS
SK-MEL-2 melanoma = test system: SK-MEL-2 melanoma
SK-MEL-28 melanoma = test system: SK-MEL-28 melanoma
SK-MEL-5 melanoma = test system: SK-MEL-5 melanoma
SK-OV-3 ovarian = test system: SK-OV-3 ovarian
SN12C renal = test system: SN12C renal
SNB-19 CNS = test system: SNB-19 CNS
SNB-75 CNS = test system: SNB-75 CNS
SNB-78 CNS = test system: SNB-78 CNS
SR leukemia = test system: SR leukemia
SW-620 colon = test system: SW-620 colon
TK-10 renal = test system: TK-10 renal
U251 CNS = test system: U251 CNS
UACC-257 melanoma = test system: UACC-257 melanoma
UACC-62 melanoma = test system: UACC-62 melanoma
UO-31 renal = test system: UO-31 renal
XF 498 CNS = test system: XF 498 CNS
RXF-631 renal = test system: RXF-631 renal

CN(C)CCN(C)CCC(=O)/C=C/c1ccccc1
TGI (786-0 renal): 29.9 µM
TGI (A498 renal): > 100 µM
TGI (A549 NSCLC): > 100 µM
TGI (ACHN renal): > 69.9 µM
TGI (CAKI-1 renal): 49.9 µM
TGI (CCRF-CEM leukemia): 23 µM
TGI (COLO 205 colon): 36 µM
TGI (DLD-1 colon): 39.9 µM
TGI (DMS 114 small cell lung): > 66.3 µM
TGI (DMS 273 small cell lung): 34 µM
TGI (EKVX NSCLC): > 93.8 µM
TGI (HCC-2998 colon): > 69.6 µM
TGI (HCT-116 colon): 31.4 µM
TGI (HCT-15 colon): 50.1 µM
TGI (HL-60(TB) leukemia): 53.5 µM
TGI (HOP-18 NSCLC): > 100 µM
TGI (HOP-62 NSCLC): > 100 µM
TGI (HOP-92 NSCLC): 56.9 µM
TGI (HT29 colon): 41.2 µM
TGI (IGROV1 ovarian): > 68.2 µM
TGI (K-562 leukemia): > 52.8 µM
TGI (KM12 colon): 52.5 µM
TGI (KM20L2 colon): > 100 µM
TGI (LOX IMVI melanoma): > 100 µM
TGI (LXFL 529 NSCLC): 32.6 µM
TGI (M14 melanoma): 40.6 µM
TGI (M19-MEL melanoma): 40.9 µM
TGI (MALME-3M melanoma): 35.6 µM
TGI (MOLT-4 leukemia): 27.2 µM
TGI (NCI-H226 lung): > 88.7 µM
TGI (NCI-H23 lung): > 61.1 µM
TGI (NCI-H460 lung): > 100 µM
TGI (NCI-H522 lung): 9.64 µM
TGI (OVCAR-3 ovarian): > 61.4 µM
TGI (OVCAR-4 ovarian): > 61.2 µM
TGI (OVCAR-5 ovarian): > 100 µM
TGI (OVCAR-8 ovarian): 47.1 µM
TGI (RPMI-8226 leukemia): 6.54 µM
TGI (RXF 393 renal): 45.3 µM
TGI (SF-268 CNS): > 94.5 µM
TGI (SF-295 CNS): > 58.4 µM
TGI (SF-539 CNS): 39.6 µM
TGI (SK-MEL-2 melanoma): > 74.6 µM
TGI (SK-MEL-28 melanoma): 43.6 µM
TGI (SK-MEL-5 melanoma): > 62.1 µM
TGI (SK-OV-3 ovarian): > 100 µM
TGI (SN12C renal): 48.5 µM
TGI (SNB-19 CNS): > 100 µM
TGI (SNB-75 CNS): > 60.8 µM
TGI (SNB-78 CNS): > 77.6 µM
TGI (SR leukemia): 27.3 µM
TGI (SW-620 colon): 37.7 µM
TGI (TK-10 renal): > 63.9 µM
TGI (U251 CNS): > 100 µM
TGI (UACC-257 melanoma): 51.4 µM
TGI (UACC-62 melanoma): 71.4 µM
TGI (UO-31 renal): > 100 µM
TGI (XF 498 CNS): 49.6 µM

COc1ccc(NC(=O)CC(=O)n2nc(-c3ccccc3)c(N=Nc3ccccc3C(=O)O)c2-c2ccccc2)cc1
TGI (786-0 renal): 70.8 µM
TGI (A549 NSCLC): > 100 µM
TGI (ACHN renal): > 100 µM
TGI (CAKI-1 renal): > 100 µM
TGI (CCRF-CEM leukemia): > 100 µM
TGI (COLO 205 colon): > 100 µM
TGI (DLD-1 colon): > 100 µM
TGI (DMS 114 small cell lung): > 100 µM
TGI (DMS 273 small cell lung): > 100 µM
TGI (EKVX NSCLC): > 100 µM
TGI (HCC-2998 colon): > 100 µM
TGI (HCT-116 colon): > 100 µM
TGI (HCT-15 colon): > 100 µM
TGI (HOP-62 NSCLC): > 100 µM
TGI (HOP-92 NSCLC): 41.4 µM
TGI (IGROV1 ovarian): > 100 µM
TGI (K-562 leukemia): > 100 µM
TGI (KM12 colon): > 100 µM
TGI (KM20L2 colon): > 100 µM
TGI (LOX IMVI melanoma): > 100 µM
TGI (LXFL 529 NSCLC): > 100 µM
TGI (M19-MEL melanoma): > 100 µM
TGI (MOLT-4 leukemia): > 100 µM
TGI (NCI-H226 lung): > 100 µM
TGI (NCI-H23 lung): > 100 µM
TGI (NCI-H522 lung): > 100 µM
TGI (OVCAR-3 ovarian): > 100 µM
TGI (OVCAR-4 ovarian): > 100 µM
TGI (OVCAR-5 ovarian): > 100 µM
TGI (OVCAR-8 ovarian): 78.9 µM
TGI (RPMI-8226 leukemia): > 100 µM
TGI (RXF 393 renal): 90.7 µM
TGI (RXF-631 renal): > 100 µM
TGI (SF-268 CNS): > 100 µM
TGI (SF-295 CNS): > 100 µM
TGI (SF-539 CNS): > 100 µM
TGI (SK-MEL-2 melanoma): > 100 µM
TGI (SK-MEL-28 melanoma): > 100 µM
TGI (SK-MEL-5 melanoma): > 100 µM
TGI (SK-OV-3 ovarian): 31.8 µM
TGI (SN12C renal): > 100 µM
TGI (SNB-19 CNS): > 100 µM
TGI (SR leukemia): > 100 µM
TGI (SW-620 colon): > 100 µM
TGI (TK-10 renal): > 100 µM
TGI (U251 CNS): > 100 µM
TGI (UACC-62 melanoma): > 100 µM
TGI (UO-31 renal): > 100 µM
